Results as given in BindingDB's records for PubMed 12533678 (Japanese Foundation For Cancer Research, 2003).

Columns and labels:
[1] = TP_TRANSPORTER: drug resistance(Mitoxantrone) in BCRP-expressing K562 cells
[2] = TP_TRANSPORTER: drug resistance(SN-38) in BCRP-expressing K562 cells

IC50 [2]	Structure (SMILES)	IC50 [1]
> 2000 nM	CC/C(=C(/c1ccc(OCCN(C)C)cc1)c1ccc(OCc2ccccc2)cc1)c1ccccc1	> 2000 nM
> 3000 nM	CCC(=O)Oc1ccc(/C(CC)=C(\CC)c2ccc(OC(=O)CC)cc2)cc1 [propanoic acid [4-[(E)-4-[4-(1-oxopropoxy)phenyl]hex-3-en-3-yl]phenyl] ester]	> 3000 nM
> 2000 nM	CC/C(=C(/c1ccc(OCCN(C)C)cc1)c1ccc(OCc2ccc([N+](=O)[O-])cc2)cc1)c1ccccc1	1500 nM
> 500 nM	CC/C(=C(/CC)c1ccc(O)cc1)c1ccc(O)cc1	500 nM
